Read-outs that look alike come from different tables or passages of the source.
Key:
CDK7/cyclin H = CDK7/cyclin H (Homo sapiens, UniProt P50613); assay: CDK7 assay (CTD peptide substrate); assay type: biochemical; conditions: read-out: Average IC50 CDK7 cyclin H
Procedure, shortened: (§1)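 Recombinant human CDK7/cyclin H or CDK9/cyclin T1 with biotinylated CTD peptide, 45 min at 30 °C, pH 7.2 MOPS buffer, 15 mM MgCl2, 100 μM ATP with trace [γ-32P]ATP. Avidin capture on P81 filters, phosphoric acid washes, 32P incorporation by scintillation counting.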

Akt/PKB = Akt/PKB (Homo sapiens, UniProt P31749); assay: Kinase specificity panel: Akt/PKB; assay type: biochemical; conditions: Table 2
Sequence of Akt/PKB (P31749 whole entry): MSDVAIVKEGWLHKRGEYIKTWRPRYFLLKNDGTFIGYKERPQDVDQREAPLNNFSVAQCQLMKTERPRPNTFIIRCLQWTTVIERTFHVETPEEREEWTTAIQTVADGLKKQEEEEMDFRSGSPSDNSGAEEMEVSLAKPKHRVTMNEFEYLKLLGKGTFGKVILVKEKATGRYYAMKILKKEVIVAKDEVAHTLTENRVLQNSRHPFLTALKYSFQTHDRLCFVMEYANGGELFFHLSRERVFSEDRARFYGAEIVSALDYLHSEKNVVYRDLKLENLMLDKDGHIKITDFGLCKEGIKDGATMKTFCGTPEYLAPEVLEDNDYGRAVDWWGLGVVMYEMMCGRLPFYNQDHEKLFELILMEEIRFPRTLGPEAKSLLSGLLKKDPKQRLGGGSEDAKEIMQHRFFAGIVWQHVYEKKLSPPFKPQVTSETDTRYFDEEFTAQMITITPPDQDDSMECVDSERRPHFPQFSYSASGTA

CaMKII = assay type: biochemical; conditions: Table 2
ERK2 = ERK2 (Homo sapiens, UniProt P28482); assay: Kinase specificity panel: ERK2; assay type: biochemical; conditions: Table 2
Sequence of ERK2 (P28482 whole entry, species assumed): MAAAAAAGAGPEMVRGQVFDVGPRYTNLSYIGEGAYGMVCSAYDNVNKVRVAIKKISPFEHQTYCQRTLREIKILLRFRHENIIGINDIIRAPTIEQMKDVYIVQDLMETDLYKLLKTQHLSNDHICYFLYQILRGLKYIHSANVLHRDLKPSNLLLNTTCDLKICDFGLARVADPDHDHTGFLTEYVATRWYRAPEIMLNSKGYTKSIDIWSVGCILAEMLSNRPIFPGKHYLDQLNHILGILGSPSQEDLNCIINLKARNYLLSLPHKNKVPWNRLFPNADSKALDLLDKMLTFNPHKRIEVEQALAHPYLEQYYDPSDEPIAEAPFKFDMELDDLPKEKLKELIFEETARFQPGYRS

PKC = target: T1, PKC (Homo sapiens, UniProt P17252); assay: PKC kinase assay (Histone 3 phosphorylation); assay type: biochemical; conditions: Table 2
T1 construct: 6xHis (C); made in house; host or cells: Sf9 insect cells (baculovirus)
Method: PKCα kinase activity may be measured by the incorporation of radio-labeled phosphate in Histone 3, as described. The reaction mixture (total volume 65 μl) consist of 50 mM Tris-HCl, 1 mM Calcium acetate, 3 mM DTT, 0.03 mg/ml Phosphatidylserine, 2.4 μg/ml PMA, 0.04% NP40, 12 mM Mg/Cl, purified PKCα-100 ng, Histone 3, 0.2 mg/ml, 100 μM ATP, 0.2 μCi [γ-^32P]-ATP. The reaction is carried over 15 min at 37° C. in microplate shaker and is stopped by adding 10 μl 75 mM orthophosphoric acid and placing the plate on ice. 50 μl of the reaction mixture is transferred onto P81 filterplate and after washing off the free radioactive phosphate (3 times with 200 μl 75 mM orthophosphoric acid per well) 50 μl of scintillation liquid (Microscint 40) were added to each well and the radioactivity is measured on Scintillation counter (Topcount, HP).

SAPK2a = SAPK2a (Homo sapiens, UniProt Q16539); assay: Kinase specificity panel: SAPK2a; assay type: biochemical; conditions: Table 2
Sequence of SAPK2a (Q16539 whole entry, species assumed): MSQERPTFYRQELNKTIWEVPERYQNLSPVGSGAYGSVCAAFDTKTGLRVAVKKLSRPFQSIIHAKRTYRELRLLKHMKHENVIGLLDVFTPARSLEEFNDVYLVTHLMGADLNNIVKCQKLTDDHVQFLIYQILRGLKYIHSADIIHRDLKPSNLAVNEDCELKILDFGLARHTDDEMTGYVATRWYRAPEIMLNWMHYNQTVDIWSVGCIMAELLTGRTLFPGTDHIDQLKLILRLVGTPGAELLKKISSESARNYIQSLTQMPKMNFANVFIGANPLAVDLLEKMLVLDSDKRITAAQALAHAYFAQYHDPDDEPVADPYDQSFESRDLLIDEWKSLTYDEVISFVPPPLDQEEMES

CDK1/Cyclin B = CDK1/Cyclin B (Homo sapiens, UniProt P06493); assay: CDK1/cyclin B kinase assay (GST-Rb phosphorylation);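 note: Enzyme: His-tagged CDK1/Cyclin B co-expressed in baculovirus-infected Sf9 insect cells, purified via metal-chelate chromatography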
Sequence of CDK1/Cyclin B (P06493 whole entry, species assumed): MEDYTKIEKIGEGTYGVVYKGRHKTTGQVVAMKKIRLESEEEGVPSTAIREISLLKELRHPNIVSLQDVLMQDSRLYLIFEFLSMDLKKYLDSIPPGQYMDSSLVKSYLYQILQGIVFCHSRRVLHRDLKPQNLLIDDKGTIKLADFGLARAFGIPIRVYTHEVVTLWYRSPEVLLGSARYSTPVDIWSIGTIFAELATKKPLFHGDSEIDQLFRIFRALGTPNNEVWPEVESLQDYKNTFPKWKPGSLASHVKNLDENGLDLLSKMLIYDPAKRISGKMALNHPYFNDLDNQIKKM
Sequence of CDK1/Cyclin B (P14635 whole entry partner, species assumed): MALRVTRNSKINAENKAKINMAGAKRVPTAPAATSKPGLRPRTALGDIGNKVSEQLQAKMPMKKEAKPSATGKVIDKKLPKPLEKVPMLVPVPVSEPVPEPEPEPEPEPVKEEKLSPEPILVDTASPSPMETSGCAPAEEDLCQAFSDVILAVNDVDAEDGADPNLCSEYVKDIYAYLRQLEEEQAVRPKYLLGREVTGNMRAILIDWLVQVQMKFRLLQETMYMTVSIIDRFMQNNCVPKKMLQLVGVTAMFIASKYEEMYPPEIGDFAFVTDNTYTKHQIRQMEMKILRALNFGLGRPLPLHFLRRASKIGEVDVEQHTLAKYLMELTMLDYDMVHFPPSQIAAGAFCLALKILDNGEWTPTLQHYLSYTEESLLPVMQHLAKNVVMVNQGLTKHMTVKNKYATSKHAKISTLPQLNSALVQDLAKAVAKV

CDK2/Cyclin E = target: T2, CDK2/Cyclin E (Homo sapiens, UniProt P24941); assay: CDK2/cyclin E kinase assay (GST-Rb phosphorylation); assay type: biochemical; conditions: read-out: Average IC50 CDK2 cyclin E1;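 note: enzyme source: His-tagged CDK2/cyclin E complex co-expressed recombinantly in Sf9 insect cells using baculovirus constructs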
T2 construct: His; made in house; host or cells: Sf9 insect cells (baculovirus)

CDK4/Cyclin D1 = CDK4/Cyclin D1 (Homo sapiens, UniProt P11802); assay: CDK4/cyclin D1 kinase assay (GST-Rb phosphorylation); assay type: biochemical; conditions: read-out: Average IC50 CDK4 cyclin D1
Sequence of CDK4/Cyclin D1 (P11802 whole entry, species assumed): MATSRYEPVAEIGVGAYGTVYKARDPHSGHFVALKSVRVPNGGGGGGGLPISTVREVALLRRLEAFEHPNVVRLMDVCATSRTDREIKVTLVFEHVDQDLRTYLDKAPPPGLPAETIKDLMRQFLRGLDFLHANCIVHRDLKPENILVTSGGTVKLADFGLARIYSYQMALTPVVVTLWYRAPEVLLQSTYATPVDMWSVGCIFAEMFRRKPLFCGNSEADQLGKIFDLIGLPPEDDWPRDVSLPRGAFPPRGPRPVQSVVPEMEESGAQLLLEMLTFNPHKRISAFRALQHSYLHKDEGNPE
Sequence of CDK4/Cyclin D1 (P24385 whole entry partner, species assumed): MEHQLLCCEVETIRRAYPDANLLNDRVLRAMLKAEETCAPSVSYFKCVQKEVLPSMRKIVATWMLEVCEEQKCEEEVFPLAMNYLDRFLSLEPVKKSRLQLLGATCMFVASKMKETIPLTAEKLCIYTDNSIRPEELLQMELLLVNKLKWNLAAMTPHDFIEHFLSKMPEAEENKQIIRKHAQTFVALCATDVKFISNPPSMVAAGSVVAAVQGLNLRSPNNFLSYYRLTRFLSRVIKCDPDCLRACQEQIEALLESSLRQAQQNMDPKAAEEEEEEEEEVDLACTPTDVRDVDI

HIV-1RoJo/PBMC = assay: Anti-HIV efficacy in fresh human PBMCs, strain RoJo; assay type: cell-based
Method: (§2) Fresh PBMCs, seronegative for HIV and HBV, were isolated from screened donors (Interstate Blood Bank, Inc. Memphis, Tenn.). Cells were pelleted/washed 2-3 times by low speed centrifugation and re-suspension in PBS to remove contaminating platelets. […] Banded PBMCs were gently aspirated from the resulting interface and subsequently washed with PBS by low speed centrifugation. […] The cells were allowed to incubate at 37° C. […] IL-2 is included in the culture medium to maintain the cell division initiated by the PHA mitogenic stimulation. PBMCs were maintained in this with bi-weekly medium changes until used in the assay protocol. Cells were kept in culture for a maximum of two weeks before being deemed too old for use in assays and discarded. Monocytes were depleted from the culture as the result of adherence to the tissue culture flask.
(§3) Tritiated thymidine triphosphate (^3H-TTP, 80 Ci/mmol, NEN) was received in 1:1 dH2O:Ethanol at 1 mCi/mL. Poly rA:oligo dT template:primer (Pharmacia) was prepared as a stock solution, followed by aliquoting and storage at −20° C. The RT reaction buffer was prepared fresh on a daily basis. The final reaction mixture was prepared by combining ^3H-TTP, dH2O, poly rA:oligo dT stock and reaction buffer. This reaction mixture was placed in a round bottom microtiter plate and supernatant containing virus was added and mixed. The plate was incubated at 37° C. for 60 minutes. Following incubation, the reaction volume was spotted onto DE81 filter-mats (Wallac), in a sodium phosphate buffer or 2×SSC (Life Technologies). Next they were washed in distilled water, in 70% ethanol, and then dried. Incorporated radioactivity (counts per minute, CPM) was quantified using standard liquid scintillation techniques.

HIV-1WeJo/PBMC = assay: Anti-HIV efficacy in fresh human PBMCs, strain WeJo; assay type: cell-based
Method: as §2, §3

HIV-1 = assay: Anti-viral cell-based assays; conditions: result in words
[1] = Compound cytotoxicity in PBMC assay plates (MTS cell viability); conditions: human, TC50 (concentration decreasing cell viability by 50%)
CDK2/cyclin A = CDK2/cyclin A (Homo sapiens, UniProt P24941); assay: CDK2/cyclin A kinase assay; assay type: biochemical; conditions: Table 3; read-out: Average IC50 CDK2 cyclin A2;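 note: Read-out is incorporated radioactivity retained on P81 filter plates and quantified by scintillation counting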
Method: Reactions were stopped on ice, followed by filtration through p81 filterplates (Whatman Polyfiltronics, Kent, UK). After washing 3 times with 75 mM orthophosphoric acid, plates were dried, scintillant added and incorporated radioactivity measured in a scintillation counter (TopCount, Packard Instruments, Pangboume, Berks, UK).

CDK9/cyclin T1 = CDK9/cyclin T1 (Homo sapiens, UniProt P50750); assay: CDK9 assay (CTD peptide substrate); assay type: biochemical; conditions: read-out: Average IC50 CDK9 cyclin T1
Sequence of CDK9/cyclin T1 (P50750 whole entry): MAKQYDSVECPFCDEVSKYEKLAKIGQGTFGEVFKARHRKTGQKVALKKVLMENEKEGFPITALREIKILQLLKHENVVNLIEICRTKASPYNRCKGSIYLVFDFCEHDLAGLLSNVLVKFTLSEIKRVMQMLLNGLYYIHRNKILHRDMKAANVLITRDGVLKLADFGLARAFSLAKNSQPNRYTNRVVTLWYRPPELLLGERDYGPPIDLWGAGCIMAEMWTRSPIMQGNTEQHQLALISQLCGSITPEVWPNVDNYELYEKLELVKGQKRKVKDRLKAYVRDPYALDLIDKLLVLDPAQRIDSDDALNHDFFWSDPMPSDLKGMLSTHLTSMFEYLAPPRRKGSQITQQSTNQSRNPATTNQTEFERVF
Sequence of CDK9/cyclin T1 (O60563 whole entry partner): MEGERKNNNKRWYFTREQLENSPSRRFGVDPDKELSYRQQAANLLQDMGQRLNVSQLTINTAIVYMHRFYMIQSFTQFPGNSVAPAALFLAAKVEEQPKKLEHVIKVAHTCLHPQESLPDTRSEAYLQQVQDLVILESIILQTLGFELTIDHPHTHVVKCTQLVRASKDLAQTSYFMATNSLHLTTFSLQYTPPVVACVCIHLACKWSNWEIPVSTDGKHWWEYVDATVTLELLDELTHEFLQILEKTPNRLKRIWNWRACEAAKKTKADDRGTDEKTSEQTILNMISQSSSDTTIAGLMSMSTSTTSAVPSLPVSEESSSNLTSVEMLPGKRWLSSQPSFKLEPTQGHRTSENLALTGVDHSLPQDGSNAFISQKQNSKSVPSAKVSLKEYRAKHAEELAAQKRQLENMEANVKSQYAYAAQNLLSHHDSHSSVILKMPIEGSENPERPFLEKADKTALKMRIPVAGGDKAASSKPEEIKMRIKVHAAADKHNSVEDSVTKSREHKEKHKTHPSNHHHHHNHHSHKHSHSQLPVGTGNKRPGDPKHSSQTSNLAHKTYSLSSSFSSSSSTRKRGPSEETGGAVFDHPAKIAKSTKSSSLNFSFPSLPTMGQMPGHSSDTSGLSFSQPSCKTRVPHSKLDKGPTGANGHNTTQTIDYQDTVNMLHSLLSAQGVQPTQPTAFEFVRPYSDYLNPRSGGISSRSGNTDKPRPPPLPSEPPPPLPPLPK
Procedure, shortened: as §1

[2] = Human immunodeficiency virus 1, read-out: IC50 (concentration inhibiting virus replication by 50%), HIV-1RoJo/PBMC
[3] = Human immunodeficiency virus 1, read-out: IC90 (concentration inhibiting virus replication by 90%), HIV-1RoJo/PBMC
[4] = Human immunodeficiency virus 1, read-out: IC50 (concentration inhibiting virus replication by 50%), HIV-1WeJo/PBMC
[5] = Human immunodeficiency virus 1, read-out: IC90 (concentration inhibiting virus replication by 90%), HIV-1WeJo/PBMC
[6] = Human immunodeficiency virus 1, PBMC, read-out: IC50 (concentration inhibiting virus replication by 50%)
[7] = Human immunodeficiency virus 1, PBMC, read-out: IC90 (concentration inhibiting virus replication by 90%)

Sequence of CDK7/cyclin H (P50613 whole entry): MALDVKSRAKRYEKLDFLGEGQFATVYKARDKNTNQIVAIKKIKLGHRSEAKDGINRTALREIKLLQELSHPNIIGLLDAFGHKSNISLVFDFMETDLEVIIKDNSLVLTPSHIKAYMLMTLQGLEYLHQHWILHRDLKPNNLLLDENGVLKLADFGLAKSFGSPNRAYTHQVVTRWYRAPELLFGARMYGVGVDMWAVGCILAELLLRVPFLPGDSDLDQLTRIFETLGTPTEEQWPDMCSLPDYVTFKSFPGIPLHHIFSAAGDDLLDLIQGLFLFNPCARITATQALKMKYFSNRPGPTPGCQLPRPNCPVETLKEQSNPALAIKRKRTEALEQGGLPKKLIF
Sequence of CDK7/cyclin H (P51946 whole entry partner): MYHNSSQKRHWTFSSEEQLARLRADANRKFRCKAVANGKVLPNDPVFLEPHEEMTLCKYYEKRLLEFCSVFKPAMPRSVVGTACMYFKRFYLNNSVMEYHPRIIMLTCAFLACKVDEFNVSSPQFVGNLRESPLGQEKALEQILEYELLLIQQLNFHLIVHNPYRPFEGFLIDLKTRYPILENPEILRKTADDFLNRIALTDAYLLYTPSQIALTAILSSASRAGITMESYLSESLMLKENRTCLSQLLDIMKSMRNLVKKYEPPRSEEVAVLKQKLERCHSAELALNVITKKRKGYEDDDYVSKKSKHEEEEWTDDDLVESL

IC50 (CDK2/Cyclin E; Table 2) [nM]	IC50 (CDK4/Cyclin D1; Table 2) [nM]	IC50 (CDK2/cyclin A) [nM]	IC50 (CDK9/cyclin T1; Table 2) [nM]	Compound	IC50 (CDK7/cyclin H; Table 2) [nM]	IC50 (Akt/PKB) [nM]	IC50 (CaMKII) [nM]	IC50 (ERK2) [nM]	IC50 (PKC) [nM]	IC50 (SAPK2a) [nM]	IC50 (CDK1/Cyclin B) [nM]	anti-viral effectiveness as demonstrated by cell-based assays (HIV-1)	CC50 at 7 days ([1]; HIV-1RoJo/PBMC) [nM]	CC50 at 7 days ([1]; HIV-1WeJo/PBMC) [nM]	other results
–	–	–	–	Cc1nc(C)c(-c2ccnc(Nc3cccc([N+](=O)[O-])c3)n2)s1 [Compound 5, [4-(2,4-Dimethyl-thiazol-5-yl)-pyrimidin-2-yl]-(3-nitro-phenyl)-amine]	13000	> 50000	> 50000	40000	35000	40000	17000	–	–	–	–
6300	> 50000	–	–	Cc1nc(C)c(-c2ccnc(Nc3ccc(F)cc3F)n2)s1 [Compound 9, (2,4-Difluoro-phenyl)-[4-(2,4-dimethyl-thiazol-5-yl)-pyrimidin-2-yl]-amine]	–	> 50000	> 50000	55000	40000	40000	38000	–	–	–	IC50 (CDK4/Cyclin D1; Table 3): > 50000 nM
–	–	–	–	Cc1nc(C)c(-c2ccnc(Nc3ccc(C(F)(F)F)cc3)n2)s1 [Compound 15, [4-(2,4-Dimethyl-thiazol-5-yl)-pyrimidin-2-yl]-(4-trifluoromethyl-phenyl)-amine]	> 100000	> 50000	> 50000	> 50000	> 50000	> 50000	34000	–	–	–	IC50 (CDK7/cyclin H; Table 3): > 100000 nM
–	–	–	–	Cc1nc(C)c(-c2ccnc(Nc3ccc(I)cc3)n2)s1 [Compound 21, [4-(2,4-Dimethyl-thiazol-5-yl)-pyrimidin-2-yl]-(4-iodo-phenyl)-amine]	–	–	–	–	–	–	–	particularly effective anti-viral agents	31000	64000	TI (therapeutic index: TC50/IC50) (HIV-1RoJo/PBMC; HIV-1RoJo/PBMC): 495; IC50 (HIV-1RoJo/PBMC; [2]): 62 nM; IC90 (HIV-1RoJo/PBMC; [3]): 100 nM; TI (therapeutic index: TC50/IC50) (HIV-1WeJo/PBMC; HIV-1WeJo/PBMC): 2190; IC50 (HIV-1WeJo/PBMC; [4]): 29 nM; IC90 (HIV-1WeJo/PBMC; [5]): 48 nM; melting point: 171 to 173 °C
–	–	–	–	Cc1nc(N)sc1-c1ccnc(Nc2cccc([N+](=O)[O-])c2)n1 [Compound 105, [4-(2-Amino-4-methyl-thiazol-5-yl)-pyrimidin-2-yl]-(3-nitro-phenyl)-amine]	–	–	> 100000	–	–	–	–	particularly effective anti-viral agents	1600	200	IC50 (HIV-1RoJo/PBMC; [6]): 67 nM; IC90 (HIV-1RoJo/PBMC; [7]): 350 nM; IC50 (HIV-1WeJo/PBMC; [6]): 5 nM; IC90 (HIV-1WeJo/PBMC; [7]): 14 nM
110	460	180	130	Cc1nc(N)sc1-c1ccnc(Nc2cccc(O)c2)n1 [Compound 116, 3-[4-(2-Amino-4-methyl-thiazol-5-yl)-pyrimidin-2-ylamino]-phenol]	990	53000	7700	15000	33000	29000	580	–	–	–	–
280	1400	1700	55	Cc1nc(N)sc1-c1ccnc(Nc2ccc(I)c([N+](=O)[O-])c2)n1 [Compound 117, [4-(2-Amino-4-methyl-thiazol-5-yl)-pyrimidin-2-yl]-(4-iodo-3-nitro-phenyl)-amine]	360	70000	> 100000	> 100000	> 100000	> 100000	1700	–	–	–	–
–	–	–	–	Cc1nc(C)c(-c2ccnc(Nc3ccc(N(C)C)c(Cl)c3)n2)s1 [Compound 128, 2-Chloro-N^4-[4-(2,4-dimethyl-thiazol-5-yl)-pyrimidin-2-yl]-N^1,N^1-dimethyl-benzene-1,4-diamine]	–	–	–	–	–	–	–	particularly effective anti-viral agents	4300	> 100000	IC50 (CDK7/cyclin H; Table 3): 6300 nM; IC50 (CDK9/cyclin T1; Table 3): 450 nM; IC50 (HIV-1RoJo/PBMC; [2]): 740 nM; IC90 (HIV-1RoJo/PBMC; [3]): 2700 nM; IC50 (HIV-1WeJo/PBMC; [4]): 860 nM; IC90 (HIV-1WeJo/PBMC; [5]): 2000 nM

Compound	IC50 (CDK2/Cyclin E; Table 2) [nM]	IC50 (CDK4/Cyclin D1; Table 2) [nM]	IC50 (CDK2/cyclin A) [nM]	IC50 (CDK9/cyclin T1; Table 2) [nM]	IC50 (CDK7/cyclin H; Table 2) [nM]	IC50 (Akt/PKB) [nM]	IC50 (CaMKII) [nM]	IC50 (ERK2) [nM]	IC50 (PKC) [nM]	IC50 (SAPK2a) [nM]	IC50 (CDK1/Cyclin B) [nM]	anti-viral effectiveness as demonstrated by cell-based assays (HIV-1)	CC50 at 7 days ([1]; HIV-1RoJo/PBMC) [nM]	CC50 at 7 days ([1]; HIV-1WeJo/PBMC) [nM]	other results
Cc1nc(C)c(-c2ccnc(Nc3cccc(C#N)c3)n2)s1 [Compound 36, 3-[4-(2,4-Dimethyl-thiazol-5-yl)-pyrimidin-2-ylamino]-benzonitrile]	390	2900	160	1000	1700	> 50000	> 50000	> 50000	> 50000	> 50000	2500	–	–	–	IC50 (CDK2/Cyclin E; Table 3): 390 nM
